What was measured:
PDK1 [1] = system: PDK1; parameters: method as in PMID 20051961; details: read-out: IC50, in vitro inhibitor of PDK1; cited from earlier work
PDK1_50-359 = target: T1, PDK1_50-359 (Homo sapiens, UniProt O15530); assay: Differential scanning fluorimetry, thermal stability of PDK1_50-359 (catalytic domain); assay type: binding
T1 construct: His (N); made in house; host or cells: insect cells (stated for the crystallography batch)
T1 sequence (O15530 50-359): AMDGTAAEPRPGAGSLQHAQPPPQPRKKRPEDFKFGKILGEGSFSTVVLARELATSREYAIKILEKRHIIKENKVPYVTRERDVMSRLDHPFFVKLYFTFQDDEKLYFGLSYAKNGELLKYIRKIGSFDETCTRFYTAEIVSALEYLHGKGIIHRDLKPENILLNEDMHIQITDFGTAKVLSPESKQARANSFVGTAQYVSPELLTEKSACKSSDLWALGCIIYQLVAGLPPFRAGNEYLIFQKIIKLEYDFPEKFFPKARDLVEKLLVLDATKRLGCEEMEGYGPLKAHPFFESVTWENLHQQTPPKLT
Description: (§1) The thermal stability of PDK1 was assessed by monitoring the unfolding of PDK1 by the increase in the fluorescence of SYPRO Orange (Invitrogen) using a real-time PCR device (StepOnePlus, Applied Biosystems and BioRad CFX96) following a previously described protocol ([70]). The reactions were performed in a final volume of 10 μl in white 96-well PCR microtiter plates (Greiner) and contained 1 μM PDK1, 10 mM HEPES (pH 7.5), 150 mM NaCl, 1/1000 SYPRO Orange and 1 mM dithiothreitol. For valsartan, the assay buffer was modified to exclude NaCl. PIFtide or compounds (at a final DMSO concentration of 1%) were added to this reaction mixture. The temperature gradient was performed in steps of 0.3 °C in the range from 25 to 70 °C. To calculate the Tm values, data were exported to GraphPad Prism and curves fitted to a Boltzmann sigmoidal equation with an acceptable confidence interval of 95%. Statistical analysis was performed with Infostat software (http://www.infostat.com.ar) and GraphPad Prism by first verifying a normal distribution of pooled residuals (Shapiro-Wilks test) and homogeneity of variance (F test), and then performing a one-way ANOVA followed by the post hoc comparisons test indicated in each figure legend.

PDK1_1-556 = target: T2, PDK1_1-556 (Homo sapiens, UniProt O15530); assay: Differential scanning fluorimetry, thermal stability of PDK1_1-556; assay type: binding
T2 construct: effect of HYG8 on the thermal stability (ΔTm) of PDK1_1-556 (H) and PDK1_50-359 (I); His (N); made in house; host or cells: Sf9 insect cells (baculovirus)
T2 sequence (O15530 1-556): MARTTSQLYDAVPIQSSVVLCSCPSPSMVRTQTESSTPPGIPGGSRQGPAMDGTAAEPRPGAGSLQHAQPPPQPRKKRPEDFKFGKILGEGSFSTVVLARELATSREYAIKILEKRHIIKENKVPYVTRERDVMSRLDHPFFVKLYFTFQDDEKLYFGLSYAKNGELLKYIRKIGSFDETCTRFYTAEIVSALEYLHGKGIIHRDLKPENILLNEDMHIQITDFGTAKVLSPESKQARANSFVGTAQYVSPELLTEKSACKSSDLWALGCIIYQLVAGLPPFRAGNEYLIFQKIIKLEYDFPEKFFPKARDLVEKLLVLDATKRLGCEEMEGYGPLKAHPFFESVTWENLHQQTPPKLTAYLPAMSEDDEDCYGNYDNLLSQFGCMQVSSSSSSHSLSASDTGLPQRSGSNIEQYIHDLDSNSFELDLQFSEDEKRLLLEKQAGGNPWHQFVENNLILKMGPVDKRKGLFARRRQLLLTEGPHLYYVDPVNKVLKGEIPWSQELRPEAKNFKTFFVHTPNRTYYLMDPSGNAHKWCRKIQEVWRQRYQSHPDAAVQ
Description: as §1

[2] = target: T3, His-PDK1_1-556 and GST-PDK1_360-556 (Homo sapiens, UniProt O15530); assay: AlphaScreen PDK1 dimerization assay His-PDK1_1-556 / GST-PDK1_360-556; assay type: binding; details: Prestwick library screen hits; read-out: IC50, inhibition of PDK1 dimerization
T3 construct: made in house; host or cells: Sf9 insect cells (His-PDK1_1-556); HEK293 cells (GST-PDK1_360-556)
T3 sequence (O15530 1-556): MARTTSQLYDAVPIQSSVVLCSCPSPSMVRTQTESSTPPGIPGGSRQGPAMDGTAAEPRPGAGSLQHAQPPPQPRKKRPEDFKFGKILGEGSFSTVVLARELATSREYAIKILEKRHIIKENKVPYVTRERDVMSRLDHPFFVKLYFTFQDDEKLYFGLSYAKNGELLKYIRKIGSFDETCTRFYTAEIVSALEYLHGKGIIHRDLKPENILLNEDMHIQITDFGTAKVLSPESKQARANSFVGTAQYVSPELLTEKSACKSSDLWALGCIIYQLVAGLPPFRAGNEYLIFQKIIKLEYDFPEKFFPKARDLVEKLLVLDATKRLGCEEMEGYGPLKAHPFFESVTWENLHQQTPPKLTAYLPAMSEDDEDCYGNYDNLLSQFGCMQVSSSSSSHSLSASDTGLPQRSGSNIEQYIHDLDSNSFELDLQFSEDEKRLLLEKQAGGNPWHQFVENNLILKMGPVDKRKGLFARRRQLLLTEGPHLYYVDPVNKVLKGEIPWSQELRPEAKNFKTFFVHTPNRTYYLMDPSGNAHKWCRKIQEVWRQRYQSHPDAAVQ
Description: (§2) The AlphaScreen® assay was performed following the general guidelines from the manufacturer (Perkin Elmer) ([29]). In short, the assay was performed in a final volume of 25 μl in white 384-well microtiter plates (Greiner) in a standard buffer containing 50 mM Tris-HCl (pH 7.4), 100 mM NaCl, 2 mM DTT, 0.01% (v/v) Tween-20 and 0.1% (w/v) BSA, with the addition of 5 μl of beads (anti-GST coated acceptor beads and streptavidin-coated donor beads; nickel chelate-coated acceptor beads and streptavidin-coated donor beads; or nickel chelate-coated acceptor beads and GSH-coated donor beads, 20 μg/ml final concentrations for each bead type). AlphaScreen assays for His-tagged proteins and GST-fusion proteins were performed using nickel chelate-coated acceptor beads and GSH-coated donor beads; alphascreen assays for His-tagged proteins and biotinylated molecules were performed using nickel chelate-coated acceptor beads and streptavidin-coated donor beads; alphascreen assays for GST-fusion proteins and biotinylated molecules were performed using anti-GST coated acceptor beads and streptavidin-coated donor beads (Perkin Elmer).
The conditions for each AlphaScreen assay were identified in cross-titration experiments for each interaction to choose the ideal pair of concentrations within the linear range of the interactions. […] His-PDK1 and GST-fusion protein in the presence or absence of the different compounds were incubated in the dark for 60 min at room temperature and the emission of light from the acceptor beads was measured in an EnVision reader (Perkin Elmer) or Spark plate reader (Tecan). […]

PDK1 [3] = target: T4, PDK1 (Homo sapiens, UniProt O15530); assay: PDK1 activity assay with T308tide and [γ32P]ATP; assay type: biochemical; details: isolated catalytic domain
T4 construct: made in house; host or cells: HEK293 (GST fusion) or Sf9 insect cells (His form)
T4 sequence (O15530 1-359): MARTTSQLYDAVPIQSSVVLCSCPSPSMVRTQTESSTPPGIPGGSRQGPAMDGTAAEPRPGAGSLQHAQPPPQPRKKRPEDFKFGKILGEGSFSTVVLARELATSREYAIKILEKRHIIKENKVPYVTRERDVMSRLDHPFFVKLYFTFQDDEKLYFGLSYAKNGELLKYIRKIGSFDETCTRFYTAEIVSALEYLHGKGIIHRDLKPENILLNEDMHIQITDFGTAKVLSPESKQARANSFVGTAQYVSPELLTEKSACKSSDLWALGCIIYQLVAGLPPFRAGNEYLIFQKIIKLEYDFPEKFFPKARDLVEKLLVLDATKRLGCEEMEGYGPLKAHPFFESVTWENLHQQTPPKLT
Description: The PDK1 activity assay using T308tide as a substrate was performed essentially as previously described ([18], [28], [54]). In brief, the assay was performed in a 20 μl format containing 50 mM Tris pH 7.5, 0.05 mg/ml BSA, 0.1% ß-mercaptoethanol, 10 mM MgCl2, 100 μM [γ^32P]ATP (5-50 cpm/pmol), 0.003% Brij, 150-500 ng PDK1, and T308tide (0.3 mM) at room temperature. The assay was performed in 96 well plated and stopped by the addition of 5 μl of 0.1 % phosphoric acid. 4 μl aliquots were spotted on p81 phosphocellulose papers (Whatmann) using ep motion 5070 (Eppendorf). The phosphocellulose papers were washed in 0.01% phosphoric acid, dried, and exposed using PhosphoImager (FLA-9000 Starion). Data were analyzed with ImageQuant software (Fujifilm). Activity measurements were performed in technical duplicates or triplicates with less than 10% difference between replicates. Experiments were repeated at least twice. The activity measurements of PDK1 towards GS-022 and GS-023 were performed similarly, with the GS-peptides replacing T308tide at the indicated concentrations. GS-022 and GS-023 have features consistent with the loose characteristics disclosed for the peptide Ser/Thr 07, ((R/K)1-3(X)0-2 (S/T) (X)0-2(R/K)1-3, where X is any residue) used by the commercial “PDK1 Direct” assay.

GST-PDK1_1-556 = target: T5, GST-PDK1_1-556 (Homo sapiens, UniProt O15530); assay: AlphaScreen GST-PDK1_1-556 / biotin-PIFtide interaction; assay type: binding
T5 construct: made in house; host or cells: HEK293 cells (transient transfection of pEBG2T); peptide synthesized by Pepscan
T5 sequence (O15530 1-556): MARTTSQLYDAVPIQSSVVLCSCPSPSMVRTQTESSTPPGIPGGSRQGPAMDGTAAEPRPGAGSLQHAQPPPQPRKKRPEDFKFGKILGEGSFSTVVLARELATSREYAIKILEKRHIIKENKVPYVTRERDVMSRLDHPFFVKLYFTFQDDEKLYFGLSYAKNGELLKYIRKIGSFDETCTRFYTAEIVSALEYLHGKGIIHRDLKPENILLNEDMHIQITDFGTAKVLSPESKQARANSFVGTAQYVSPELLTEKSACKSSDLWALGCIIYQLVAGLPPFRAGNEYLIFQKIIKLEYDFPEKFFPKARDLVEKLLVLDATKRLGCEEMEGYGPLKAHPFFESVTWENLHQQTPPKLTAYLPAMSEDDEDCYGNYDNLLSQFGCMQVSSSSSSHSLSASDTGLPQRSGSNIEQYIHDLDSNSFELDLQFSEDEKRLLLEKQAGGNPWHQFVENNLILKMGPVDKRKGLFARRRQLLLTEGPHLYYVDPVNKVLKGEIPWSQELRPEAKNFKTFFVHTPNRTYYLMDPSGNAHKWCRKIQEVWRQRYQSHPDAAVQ
Description: as §2
The interaction between GST-PDK1_1-556 and biotin-PIFtide was performed as described previously ([29], [32]) in the standard buffer, but the bead concentration was lowered to 15 μg/ml.

Row | Compound | IC50 (PDK1 [1]) | effect on thermal stability of PDK1_50-359 (catalytic domain) (PDK1_50-359) | ΔTm at 50 µM (PDK1_1-556; 50 μM, buffer without NaCl) | effect on temperature stability of the PDK1-HYG8 complex (PDK1_1-556; in presence of HYG8) | IC50 [2] | effect on activity of the isolated catalytic domain of PDK1 toward T308tide (PDK1 [3]) | effect on PDK1-PIFtide interaction (GST-PDK1_1-556)
1 | O=P(O)(O)OC1C(OCc2ccccc2)C(OP(=O)(O)O)C(OP(=O)(O)O)C(OP(=O)(O)O)C1OP(=O)(O)O (stereo not shown) [2-O-benzyl-IP5] | 0.026 µM |  |  |  |  |  | 
2 | CCCCC(=O)N(Cc1ccc(-c2ccccc2-c2nnn[nH]2)cc1)[C@H](C(=O)O)C(C)C [valsartan, reference compound] |  | less stabilization | 2.2 °C | did not further enhance | 32 µM | modestly increased | inhibited
